System: NK cells
Experiment: Production of cytokines, growth factors and chemokines by NK cells treated with bacterial strains (Bio-Plex 27-plex)
Format: cell-based, human
Design: unit not given here
Method: Different strains of probiotic bacteria were tested for their ability to induce IFN-g as well as a number of important cytokines, chemokines and growth factors (Table 1). To assess the levels of each strain used in the combination we used an activation index established in the lab for the NK cells which consisted of the use of a specific ratio of several important cytokines and chemokines that prevented auto-immunity while enhancing significant activation of NK cells under pathologic conditions. Therefore, the strains were selected to: 1) provide regulated activation of NK cells when no activation of NK cells is desired; 2) when activated by cytokines and/or cross-linking of the important receptors which occurs during functional activation of NK cells in cancer is to induce maximal activation of NK cells; and 3) provide diversity for gut microflora. These criteria allow us to use bacteria to regulate the gut mucosal immunity in such a way that we will only increase NK activation when needed during infections or malignancies. In other words when there is no need for function of NK cells bacteria will regulate NK function to not induce inflammation; however, during need which occurs under the pathological conditions NK cells are triggered to function at the maximal levels. Such coordinated regulation of NK cell function should be effective in halting unwanted inflammation while providing effective and maximal immunity during disease.
Written informed consents, approved by UCLA Institutional Review Board (IRB), were obtained from healthy blood donors, and all procedures were approved by the UCLA-IRB. Peripheral blood was separated using Ficoll-Hypaque centrifugation, after which the white, cloudy layer, containing peripheral blood mononuclear cells (PBMC), was harvested, washed and re-suspended in RPMI 1640 (Invitrogen by Life Technologies, CA) supplemented with 10% FBS and plated on plastic tissue culture dishes. After 1-2 hours of incubation, non-adherent, human peripheral blood lymphocytes (PBL) were collected. NK cells were negatively selected and isolated from PBLs using the EasySep® Human NK cell enrichment kit purchased from Stem Cell Technologies (Vancouver, BC, Canada). Isolated NK cells were stained with anti-CD16 antibody, to measure NK cell purity using flow cytometric analysis. The isolated NK cell population was greater than 90% purity. Purified NK cells were cultured in RPMI Medium 1640 supplemented with 10% FBS (Gemini Bio-Products, CA), 1% antibiotic antimycotic, 1% sodium pyruvate, and 1% MEM non-essential amino acids (Invitrogen, Life Technologies, CA).
Purified NK cells from healthy donors were left untreated or treated with IL-2 (1000 units/ml) or the combination of anti-CD16 mAb (3 μg/ml) and IL-2 (1000 units/ml) in the presence or absence of bacterial strains at 1:5 ratio (NK cell: bacteria) for 12-18 hours. Afterwards, the levels of cytokines, growth factors and chemokines were determined using Bio-Plex Pro Human Cytokine 27-plex Assay Kit.

[1] = Treatment NK (no activation), bacteria 1:5 NK cell:bacteria, 12-18 hours
[2] = Treatment NK + IL-2 (1000 units/ml), bacteria 1:5, 12-18 hours
[3] = Treatment NK + IL-2 + anti-CD16 mAb (3 μg/ml), bacteria 1:5, 12-18 hours

Lactobacillus bulgaricus [L. bulgaricus]
Eotaxin [1]: 7
G-CSF [1]: 77
GM-CSF [1]: 121
IFN-γ [1]: 144
IL-1B [1]: 293
IL-1ra [1]: 112
IL-6 [1]: 2518
IL-8 [1]: 4501
IL-10 [1]: 22
IL-12p70 [1]: 25
IL-13 [1]: 9
IL-17 [1]: 49
IP-10 [1]: 88
MCP-1 [1]: 609
RANTES [1]: 3804
TNF-α [1]: 868
Eotaxin [2]: 15
G-CSF [2]: 69
GM-CSF [2]: 120
IFN-γ [2]: 381
IL-1B [2]: 123
IL-1ra [2]: 449
IL-6 [2]: 837
IL-8 [2]: 1997
IL-10 [2]: 12
IL-12p70 [2]: 21
IL-13 [2]: 10
IL-17 [2]: 55
IP-10 [2]: 78
MCP-1 [2]: 313
RANTES [2]: 4737
TNF-α [2]: 439
Eotaxin [3]: 6
G-CSF [3]: 59
GM-CSF [3]: 136
IFN-γ [3]: 306
IL-1B [3]: 141
IL-1ra [3]: 383
IL-6 [3]: 685
IL-8 [3]: 1819
IL-10 [3]: 9
IL-12p70 [3]: 5
IL-13 [3]: 8
IL-17 [3]: 50
IP-10 [3]: 72
MCP-1 [3]: 305
RANTES [3]: 4062
TNF-α [3]: 1064

Lactobacillus paracasei [L. paracasei]
Eotaxin [1]: 4
G-CSF [1]: 106
GM-CSF [1]: 99
IFN-γ [1]: 186
IL-1B [1]: 320
IL-1ra [1]: 129
IL-6 [1]: 3029
IL-8 [1]: 3716
IL-10 [1]: 70
IL-12p70 [1]: 70
IL-13 [1]: 8
IL-17 [1]: 40
IP-10 [1]: 53
MCP-1 [1]: 506
RANTES [1]: 1069
TNF-α [1]: 3809
Eotaxin [2]: 27
G-CSF [2]: 138
GM-CSF [2]: 157
IFN-γ [2]: 2112
IL-1B [2]: 523
IL-1ra [2]: 551
IL-6 [2]: 7285
IL-8 [2]: 3983
IL-10 [2]: 47
IL-12p70 [2]: 125
IL-13 [2]: 15
IL-17 [2]: 63
IP-10 [2]: 90
MCP-1 [2]: 337
RANTES [2]: 6468
TNF-α [2]: 6776
Eotaxin [3]: 40
G-CSF [3]: 153
GM-CSF [3]: 215
IFN-γ [3]: 2145
IL-1B [3]: 721
IL-1ra [3]: 573
IL-6 [3]: 6867
IL-8 [3]: 6385
IL-10 [3]: 43
IL-12p70 [3]: 123
IL-13 [3]: 27
IL-17 [3]: 90
IP-10 [3]: 92
MCP-1 [3]: 427
RANTES [3]: >22609
TNF-α [3]: 10128

Lactobacillus plantarum [L. plantarum]
Eotaxin [1]: 36
G-CSF [1]: 236
GM-CSF [1]: 122
IFN-γ [1]: 282
IL-1B [1]: 645
IL-1ra [1]: 323
IL-6 [1]: 9500
IL-8 [1]: 17756
IL-10 [1]: 85
IL-12p70 [1]: 130
IL-13 [1]: 8
IL-17 [1]: 78
IP-10 [1]: 140
MCP-1 [1]: 958
RANTES [1]: 22609
TNF-α [1]: 13887
Eotaxin [2]: 36
G-CSF [2]: 129
GM-CSF [2]: 181
IFN-γ [2]: 5484
IL-1B [2]: 466
IL-1ra [2]: 500
IL-6 [2]: 4212
IL-8 [2]: 3415
IL-10 [2]: 43
IL-12p70 [2]: 184
IL-13 [2]: 14
IL-17 [2]: 73
IP-10 [2]: 115
MCP-1 [2]: 427
RANTES [2]: 1923
TNF-α [2]: 9223
Eotaxin [3]: 40
G-CSF [3]: 125
GM-CSF [3]: 216
IFN-γ [3]: 3087
IL-1B [3]: 714
IL-1ra [3]: 575
IL-6 [3]: 3679
IL-8 [3]: 3247
IL-10 [3]: 37
IL-12p70 [3]: 155
IL-13 [3]: 20
IL-17 [3]: 78
IP-10 [3]: 92
MCP-1 [3]: 335
RANTES [3]: 4147
TNF-α [3]: 7942

Source: patent US12156893B2, “Oral composition comprising lactic acid bacteria for regulating immune responses and methods related thereto” (The Regents of the University of California, priority 2016, dated 2024)
